Values of other authors as cited in US20140171436A1, “TREATMENT OF ANTIFOLATE NEUROTOXICITY” (Syntrix Biosystems, Inc., priority 2003, published 2014).
Where two headings read alike, the source gives them in different places.

Tests used:
[1] = in words; 'No' = none known; cited from earlier work
sigma-1 receptor = sigma-1 receptor (Homo sapiens, UniProt Q99720); settings: read-out: sigma-1 affinity, cited from earlier work
[2] = Table IV, undefined agonist/antagonist activity

Chain of sigma-1 receptor (Q99720 whole entry, species assumed): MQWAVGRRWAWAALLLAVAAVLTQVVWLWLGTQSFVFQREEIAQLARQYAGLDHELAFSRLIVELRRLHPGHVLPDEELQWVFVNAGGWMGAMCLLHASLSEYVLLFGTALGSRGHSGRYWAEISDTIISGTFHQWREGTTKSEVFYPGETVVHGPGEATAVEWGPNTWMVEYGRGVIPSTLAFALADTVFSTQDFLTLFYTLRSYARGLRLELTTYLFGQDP

Compound	Other known affinity [1]	Ki (sigma-1 receptor; Table II, sigma-1 agonists) [nM]	Ki (sigma-1 receptor; [2]) [nM]	Ki (sigma-1 receptor; Table III, sigma-1 antagonists) [nM]
CN(CCc1ccc(Cl)c(Cl)c1)CCN1CCCC1 [BD-1008, N-[2-(3,4-dicholophenyl)ethyl]-N-methyl-2-(1-pyrrolidinyl)ethylamine]	sigma-2			
COc1cccc2c1CCC(=O)N2CCCN1CCN(c2cccc(Cl)c2)CC1 [OPC-14523]	Sigma-2, 5HT1AR	< 50		
CCN(C/C=C\c1ccc(C2CCCCC2)c(Cl)c1)C1CCCCC1.Cl [SR-31747A]	C8-C7 sterol isomerase		< 50	
C[C@H](Cc1ccccc1)NCCCc1ccccc1 [(−)-PPAP, R(−)-N-(3-phenyl-1-propyl)-1-phenyl-2-aminopropane]	NMDAR			
OC(CN1CCC(Cc2ccc(F)cc2)CC1)c1ccc(Cl)cc1 (stereo not shown) [Eliprodil]	NMDAR polyamine site		< 50	
COc1ccc(CCN2CCN(CCCc3ccccc3)CC2)cc1OC.Cl [SA4503, 1-(3,4-dimethoxyphenethyl)-4-(3-phenylpropyl) piperazine HCl]	No			
CC(=O)C1CCC2C3CC=C4CC(OS(=O)(=O)O)CCC4(C)C3CCC12C (stereo not shown) [Pregnenolone sulphate]		500 to 10000		
COc1ccc(N2C[C@H](CN3CCC(O)(c4ccc5c(c4)OCO5)CC3)OC2=O)cc1 [Panamesin]				< 50
COC(=O)[C@H]1[C@@H](OC(=O)c2ccccc2)C[C@@H]2CC[C@H]1N2C [Cocaine]		500 to 10000		
CCC(C/C=C/c1ccccc1)(c1ccccc1)N(C)CC1CC1 (single isomer, unassigned; (+)) [Igmesine, (+) N-cyclopropylmethyl-N-methyl-1,4-diphenyl-1-ethyl-butyl-2-N]		< 50		
2-[4-(4-methoxy-benzyl)piperazin-1-yl-methyl]4-oxo[4H]-benzo-thiazolin-2-one [S-21377]	No		< 50	
c1ccc(CN2CCN(Cc3ccc4ccccc4c3)CC2)cc1 [S-21378, 2[(4-benzylpiperazin-1-yl)mothyl] naphthalene, dichiorydrate]	No		< 50	
COCCN1CCN(C[C@H]2CCN(c3ccc(Cl)cc3)C2=O)CC1.O=C(O)C(O)C(O)C(=O)O [MS-377, (R)-(+)-1-(4-chlorophenyl)-3-[4-(2-methoxyethyl)piperazin-1-yl] methyl-2-pyrrolidinone L-tartrate]	No			< 50
CN(C)CCCN1c2ccccc2CCc2ccccc21 [Imipramine]	MAOI	50 to 500		
CNCCC(Oc1ccc(C(F)(F)F)cc1)c1ccccc1 (stereo not shown) [Fluoxetine]	SSRI			
1-(cyclopropylmethyl)-4-(2′-oxoethyl) piperidine HBr [Dup-734]	No			< 50
CCCN1CCC[C@H](c2cccc(O)c2)C1 [(+)-3-PPP, R(+)-3-(3-hydroxyphenyl)-N-propylpiperidine]	Dopamine receptor			
CC(C)=CCN1CCC2(C)c3cc(O)ccc3CC1C2C (single isomer, unassigned; (+)) [(+)-pentazocine]	No			
Cc1c(-c2ccccc2)oc2ccc(OCCCCCCN3CCC(O)CC3)cc2c1=O [NPC 16377, 6-[6-(4-hydroxypiperidinyl)hexyloxy]-3-methylflavone]	No			
C[C@]12CC[C@H](OS(=O)(=O)O)CC1=CC[C@@H]1[C@@H]2CC[C@]2(C)C(=O)CC[C@@H]12 [PB-008, dihydroepiandrosterone sulphate]		500 to 10000		
